Data on 4 compounds can be found in patent publication US9546377B2, “Methods for the identification of genes involved in abiotic stress tolerance in plants” (priority 2011, dated 2017).

For test [1], the system named is Arabidopsis. Briefly: Kill curves for individual osmotic stress agents. The settings on record: kill curve experiments, each stress agent individually in the media. The class given is in vivo. From the text: The standardization of growth conditions and generation of kill curves for various osmotic stress agents individually was done before the development of quad stress assay conditions. […] As there were four stress agents being used together, a quarter of each together in a solution would denote 100% stress or an osmotic pressure of 1.23 MPa. Therefore the following concentrations of each component were used in “100% quad media”.
Assay Conditions: Seeds were surface sterilized and stratified for 48 hrs. About 100 seeds were inoculated in one plate and cultured in a growth chamber programmed for 16 h of light at 22° C. temperature and 50% relative humidity. Germination was scored as the emergence of radicle. Assay Plan: A 6-day assay and an extended 10-day assay were done to test the seeds from the 48 transgenic Arabidopsis lines for osmotic stress tolerance. • Day 0—Surface sterilized seeds of different drought leads and stratify. • Day 2—Inoculated onto quad media. • Day 4—Counted for germination (48 hrs). • Day 5—Counted for germination (72 hrs)/Take pictures or Scan plates from 48 hrs to 96 hrs. • Day 6—Counted for germination (96 hrs). • For the extended 10-day assay, germination was scored from 48 hrs to 96 hrs. On day 7, 8, 9 and 10, the emerged seedlings were checked for greenness and four leaf stage. Preparation of Media • Germination medium (GM or 0% quad media) for 1 liter: […]

The subject of test [2] is Arabidopsis. As to the kind of experiment: Paraquat tolerance assay, dose effect of paraquat on growth. The class given is in vivo. Here is the method: In light-exposed plants, paraquat accepts electrons from photosystem I and transfers them to molecular oxygen. In this manner, destructive reactive oxygen species are produced. A range of paraquat concentrations were tested in Arabidopsis. […] Compared to wild-type plants, mutant plants have larger size and less-bleached leaves under these conditions. A quantitative assay based on leaf area and color (similar to low N plate analysis) can be easily integrated into this screen.
The dose effect of paraquat on Arabidopsis growth was determined. […] Therefore this concentration was used for paraquat resistance assay. […] Tsu can serve as a positive control for this assay.
Seeds were surface sterilized and stratified for 96 hrs. 18 seeds for each tested line and Col-0 were inoculated in one plate, then cultured in a growth chamber programmed for 16 h of light at 22° C. temperature, 150 μE light intensity and 50% relative humidity. Growth phenotype was scored based on leaf size and color at 7-day-after inoculation.
Seeds were inoculated on a square paraquat plate. 18 seeds of test lines and 18 seeds of Col-0 were evenly put on the plate side by side. Plates were then cultured in the chambers set at 16 h of light at 22° C. temperature, 150 μE light intensity and 50% relative humidity.

With `[Cl-].[Na+]` [NaCl, sodium chloride], the lethal concentration in test [1] stood at 150 mM. The same measure, in the same setting: the same measure for `OC[C@@H](O)[C@@H](O)[C@H](O)[C@H](O)CO` [mannitol]: 500 mM.

`C[n+]1ccc(-c2cc[n+](C)cc2)cc1` [paraquat]: the “effect on Col-0 plants” value in test [2] (0.03 μM paraquat) was “plants died one-week-after germination”. Also, in test [2] (7-day growth on plates), the “concentration that greatly inhibited Arabidopsis growth” value is 0.03 µM. For the same compound, in test [2] (in vivo), the “concentration at which the effect on growth can be detected” value is 0.01 µM. Moreover, the “concentration giving dose-dependent growth inhibition and leaf bleach” value in test [2] (range of paraquat concentrations tested in Arabidopsis) fell in the range of 0.01 to 0.1 µM. Turning to `OC[C@@H](O)[C@@H](O)[C@H](O)[C@@H](O)CO` [sorbitol], in test [1], the lethal concentration was determined as 500 mM.
